The subject of one assay is PC-12. The assay is described as follows: Cytoprotective activity against corticosterone-induced apoptosis in rat PC12 cells incubated for 24 hrs by MTS assay. The class given is functional, cell-based. (In general: Formazan colour is commonly taken as a measure of viable cells.)
For a further assay, the system named is Staphylococcus aureus. The assay is described as follows: Antibacterial activity against Staphylococcus aureus assessed as inhibition of microbial growth incubated for 12 hrs by microdilution method. The format is functional, organism-based.
Another assay has as its system Salmonella typhi. Briefly: Antibacterial activity against Salmonella typhi assessed as inhibition of microbial growth incubated for 12 hrs by microdilution method. The conditions noted are these: Salmonella enterica subsp. enterica serovar Typhi. The format is functional, organism-based. For orientation: Broth dilution looks for growth in wells or tubes with falling amounts of substance.

The next assay concerns Gaeumannomyces graminis. Briefly: Antifungal activity against Gaeumannomyces graminis incubated for 48 hrs. The format is functional, organism-based.
A further assay deals with Verticillium. Briefly: Antifungal activity against Verticillium cinnabarinum incubated for 48 hrs. The class given is functional.

The source made the active and inactive calls. The rule behind the calls is not given here.

As for `COc1cc(O)c2c(c1)[C@@]13O[C@]4(C)C[C@@](O)(C(=O)C[C@@]1(C)O4)[C@H]3OC2=O`, the result in the assay on PC-12 was Active. Besides, the result in the assay on Staphylococcus aureus, in the assay on Salmonella typhi, in the assay on Gaeumannomyces graminis and in the assay with Verticillium was inactive.
Consider `COc1cc(O)c2c(c1)[C@]13O[C@@]4(C)C[C@](O)(C(=O)C[C@]1(C)O4)[C@@H]3OC2=O`, for which the result with PC-12 was Active. Further, the result in the assay on Staphylococcus aureus, in the assay with Salmonella typhi, with Gaeumannomyces graminis and in the assay with Verticillium was inactive.

The values above are taken from ChEMBL document CHEMBL4422688, “(+)- and (-)-Alternarilactone A: Enantiomers with a Diepoxy-Cage-like Scaffold from an Endophytic Alternaria sp” (J Nat Prod, 2019).
